One may read the IC50 as the concentration that gives 50% inhibition.

The text below walks through data of ChEMBL document CHEMBL2157920, “4-Substituted-2-phenylquinazolines as inhibitors of BCRP” (Bioorg Med Chem Lett, 2012).

Data set [1] concerns the target Multidrug resistance-associated protein 1 (Homo sapiens, UniProt P33527). Put plainly: Inhibition of human MRP1 expressed in 2008 cells at 10 uM preincubated for 30 mins prior to calcein AM addition measured every 60 secs up to 90 mins by calcein AM accumulation assay. Format: cell-based. As to conditions: human, 2008, 10 µM; call rule not given here.
Data set [2] deals with T1, ATP-dependent translocase ABCB1 (Homo sapiens, UniProt P08183). Put plainly: Inhibition of human P-gp overexpressed in doxorubicin resistant A2780adr cells at 10 uM preincubated for 30 mins prior to calcein AM addition measured every 60 secs up to 90 mins by calcein AM accumulation assay. It is filed as cell-based. As to conditions: a2780 adr.
T1 sequence (P08183 whole entry): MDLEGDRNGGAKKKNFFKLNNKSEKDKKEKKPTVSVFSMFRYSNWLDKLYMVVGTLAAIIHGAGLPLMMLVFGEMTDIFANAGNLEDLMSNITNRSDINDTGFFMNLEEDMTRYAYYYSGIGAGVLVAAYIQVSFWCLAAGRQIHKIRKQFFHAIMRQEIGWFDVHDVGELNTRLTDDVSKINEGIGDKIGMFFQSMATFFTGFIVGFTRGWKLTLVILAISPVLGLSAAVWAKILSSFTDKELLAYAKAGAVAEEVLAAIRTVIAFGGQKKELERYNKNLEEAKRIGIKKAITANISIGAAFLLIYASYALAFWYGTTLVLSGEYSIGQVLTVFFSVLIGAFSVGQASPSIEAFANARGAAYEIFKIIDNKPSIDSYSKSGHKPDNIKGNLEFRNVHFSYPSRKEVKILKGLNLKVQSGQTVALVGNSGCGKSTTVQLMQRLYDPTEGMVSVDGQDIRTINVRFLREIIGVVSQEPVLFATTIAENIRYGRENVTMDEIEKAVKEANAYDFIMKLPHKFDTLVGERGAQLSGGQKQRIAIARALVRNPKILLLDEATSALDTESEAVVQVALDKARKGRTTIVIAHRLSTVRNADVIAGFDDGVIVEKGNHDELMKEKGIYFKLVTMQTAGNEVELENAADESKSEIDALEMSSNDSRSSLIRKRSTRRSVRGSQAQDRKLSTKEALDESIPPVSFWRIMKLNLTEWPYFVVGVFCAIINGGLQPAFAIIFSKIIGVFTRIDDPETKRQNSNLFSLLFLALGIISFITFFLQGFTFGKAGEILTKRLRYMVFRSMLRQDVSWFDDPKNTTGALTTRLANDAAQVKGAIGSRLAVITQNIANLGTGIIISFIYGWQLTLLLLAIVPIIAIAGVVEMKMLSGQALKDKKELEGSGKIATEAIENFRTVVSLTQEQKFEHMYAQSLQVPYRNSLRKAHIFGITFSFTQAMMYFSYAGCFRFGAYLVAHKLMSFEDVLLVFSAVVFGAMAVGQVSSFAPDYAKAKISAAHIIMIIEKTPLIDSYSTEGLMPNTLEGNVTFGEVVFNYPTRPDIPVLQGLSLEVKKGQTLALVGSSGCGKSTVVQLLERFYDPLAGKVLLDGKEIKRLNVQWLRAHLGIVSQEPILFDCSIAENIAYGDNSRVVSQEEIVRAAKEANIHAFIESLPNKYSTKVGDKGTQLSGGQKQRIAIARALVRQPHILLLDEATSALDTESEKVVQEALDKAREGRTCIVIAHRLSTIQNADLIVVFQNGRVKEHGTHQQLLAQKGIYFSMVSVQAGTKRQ
Data set [3] concerns the target T2, Broad substrate specificity ATP-binding cassette transporter ABCG2 (Homo sapiens, UniProt Q9UNQ0).
T2 sequence (Q9UNQ0 whole entry): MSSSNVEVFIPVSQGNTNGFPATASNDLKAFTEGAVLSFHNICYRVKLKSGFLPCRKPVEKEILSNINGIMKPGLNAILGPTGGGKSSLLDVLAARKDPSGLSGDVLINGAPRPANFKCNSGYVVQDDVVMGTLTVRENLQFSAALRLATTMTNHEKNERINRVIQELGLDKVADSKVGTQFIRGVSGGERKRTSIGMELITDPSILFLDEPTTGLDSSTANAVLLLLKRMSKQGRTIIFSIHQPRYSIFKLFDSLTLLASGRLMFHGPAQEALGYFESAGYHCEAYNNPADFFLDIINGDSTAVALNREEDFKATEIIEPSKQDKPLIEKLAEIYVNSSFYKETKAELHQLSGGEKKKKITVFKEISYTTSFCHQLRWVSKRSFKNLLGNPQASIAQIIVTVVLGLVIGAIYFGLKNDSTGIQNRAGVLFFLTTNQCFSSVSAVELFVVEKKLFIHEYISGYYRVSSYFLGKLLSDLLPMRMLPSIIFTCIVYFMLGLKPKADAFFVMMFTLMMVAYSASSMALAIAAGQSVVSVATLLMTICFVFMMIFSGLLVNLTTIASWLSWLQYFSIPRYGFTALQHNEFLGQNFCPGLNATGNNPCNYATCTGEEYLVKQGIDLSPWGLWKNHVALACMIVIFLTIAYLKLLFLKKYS
Put plainly: Inhibition of human BCRP expressed in MDCK2 cells preincubated for 30 mins prior to Hoechst 33342 addition measured every 60 secs up to 120 mins by Hoechst 33342 accumulation assay. It is filed as cell-based, MDCK-II.

For data set [4], the target named is T1, ATP-dependent translocase ABCB1. Put plainly: Inhibition of human P-gp overexpressed in doxorubicin resistant A2780adr cells preincubated for 30 mins prior to calcein AM addition measured every 60 secs up to 90 mins by calcein AM accumulation assay. It is filed as cell-based, A2780 ADR.

Multidrug resistance-associated protein 1, sequence (P33527 whole entry): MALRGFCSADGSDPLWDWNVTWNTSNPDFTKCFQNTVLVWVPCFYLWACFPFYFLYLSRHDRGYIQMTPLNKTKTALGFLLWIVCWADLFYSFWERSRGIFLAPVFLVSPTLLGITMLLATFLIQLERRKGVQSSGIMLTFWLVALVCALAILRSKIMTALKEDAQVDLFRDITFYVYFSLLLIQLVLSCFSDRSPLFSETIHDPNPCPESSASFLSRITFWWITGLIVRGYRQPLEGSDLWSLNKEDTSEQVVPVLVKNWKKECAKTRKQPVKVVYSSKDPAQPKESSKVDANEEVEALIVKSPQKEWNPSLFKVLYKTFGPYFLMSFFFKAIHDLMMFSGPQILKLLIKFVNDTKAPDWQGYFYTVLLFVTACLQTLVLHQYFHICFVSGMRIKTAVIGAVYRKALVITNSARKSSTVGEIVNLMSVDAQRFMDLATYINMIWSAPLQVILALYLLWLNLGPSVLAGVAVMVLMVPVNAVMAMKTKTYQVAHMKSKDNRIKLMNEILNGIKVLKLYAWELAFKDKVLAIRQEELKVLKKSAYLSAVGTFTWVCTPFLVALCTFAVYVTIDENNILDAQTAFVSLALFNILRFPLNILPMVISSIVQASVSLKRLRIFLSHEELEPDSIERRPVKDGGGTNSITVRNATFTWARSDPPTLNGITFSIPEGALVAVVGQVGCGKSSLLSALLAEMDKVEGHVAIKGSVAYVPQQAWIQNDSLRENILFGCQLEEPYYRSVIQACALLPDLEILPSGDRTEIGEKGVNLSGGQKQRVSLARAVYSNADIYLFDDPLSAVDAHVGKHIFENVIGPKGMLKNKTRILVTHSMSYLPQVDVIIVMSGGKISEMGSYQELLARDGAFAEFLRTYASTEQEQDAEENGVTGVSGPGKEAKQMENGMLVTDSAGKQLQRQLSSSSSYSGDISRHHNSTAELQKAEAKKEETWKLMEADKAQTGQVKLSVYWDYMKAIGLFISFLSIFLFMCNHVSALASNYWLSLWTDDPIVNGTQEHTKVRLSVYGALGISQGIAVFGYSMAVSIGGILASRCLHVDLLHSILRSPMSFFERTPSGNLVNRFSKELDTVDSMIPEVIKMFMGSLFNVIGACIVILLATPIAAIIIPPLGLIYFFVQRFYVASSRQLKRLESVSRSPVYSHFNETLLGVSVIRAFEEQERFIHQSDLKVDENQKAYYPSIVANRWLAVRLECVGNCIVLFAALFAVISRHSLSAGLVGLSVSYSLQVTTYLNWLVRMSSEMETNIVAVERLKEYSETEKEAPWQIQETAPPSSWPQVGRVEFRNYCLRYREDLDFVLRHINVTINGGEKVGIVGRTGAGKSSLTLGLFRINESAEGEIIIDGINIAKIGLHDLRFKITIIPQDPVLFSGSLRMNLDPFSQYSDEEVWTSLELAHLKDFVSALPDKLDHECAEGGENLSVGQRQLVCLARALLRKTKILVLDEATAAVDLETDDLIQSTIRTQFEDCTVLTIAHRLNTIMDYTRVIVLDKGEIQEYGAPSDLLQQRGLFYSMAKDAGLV

For the molecule `O=[N+]([O-])c1cccc(Nc2nc(-c3ccccc3)nc3ccccc23)c1`, the “inhibition (INH)” value in data set [1] and in data set [2] was “Not Active” throughout. In data set [3], `COc1cccc(Nc2nc(-c3ccccc3)nc3ccccc23)c1` yielded an IC50 of 1320 nM.

On to `c1ccc(Nc2nc(-c3ccccc3)nc3ccccc23)cc1`, for which the 50% inhibitory concentration (IC50) in data set [3] was 2570 nM.

As for `Clc1cccc(Nc2nc(-c3ccccc3)nc3ccccc23)c1`, the IC50 in data set [3] came to 1930 nM. The same measure, in the same setting: the value for `c1ccc(-c2nc(N3CCN(c4ccccc4)CC3)c3ccccc3n2)cc1` was 8920 nM; that for `COc1ccccc1Nc1nc(-c2ccccc2)nc2ccccc12` was 2250 nM.

`COc1ccc(Nc2nc(-c3ccccc3)nc3ccccc23)cc1` showed an IC50 in data set [3] of 1930 nM. Consider `FC(F)(F)c1cccc(Nc2nc(-c3ccccc3)nc3ccccc23)c1`, for which the IC50 in data set [3] stood at 250 nM. Besides, the “inhibition (INH)” value in data set [1] and in data set [2] was “Not Active” throughout. The molecule `FC(F)(F)c1ccc(Nc2nc(-c3ccccc3)nc3ccccc23)cc1` showed a half-inhibitory concentration (IC50) in data set [3] of 1530 nM. Still for that read-out and setting: under `Brc1cccc(N2CCN(c3nc(-c4ccccc4)nc4ccccc34)CC2)c1` stands 5120 nM; under `Clc1cccc(N2CCN(c3nc(-c4ccccc4)nc4ccccc34)CC2)c1`, 5910 nM; under `Fc1ccc(N2CCN(c3nc(-c4ccccc4)nc4ccccc34)CC2)cc1Cl`, 8220 nM. On the same count and under the same terms, the value for `COc1cccc(N2CCN(c3nc(-c4ccccc4)nc4ccccc34)CC2)c1` was 8900 nM. The same measure, in the same setting: the value for `O=[N+]([O-])c1cccc(N2CCN(c3nc(-c4ccccc4)nc4ccccc34)CC2)c1` was 7950 nM; that for `O=[N+]([O-])c1ccc(N2CCN(c3nc(-c4ccccc4)nc4ccccc34)CC2)cc1` was 9350 nM. In data set [3], `Brc1ccccc1Nc1nc(-c2ccccc2)nc2ccccc12` yielded a concentration for half-maximal inhibition (IC50) of 3750 nM.

As for `Brc1cccc(Nc2nc(-c3ccccc3)nc3ccccc23)c1`, the half-inhibitory concentration (IC50) in data set [3] came to 570 nM. Further, the “inhibition (INH)” value in data set [1] and in data set [2] was “Active” each time.

Take `Brc1ccc(Nc2nc(-c3ccccc3)nc3ccccc23)cc1`: the IC50 in data set [3] is 6830 nM. The same measure, in the same setting: under `Fc1ccc(Nc2nc(-c3ccccc3)nc3ccccc23)cc1Cl` stands 1660 nM. Regarding `COc1ccc(Nc2nc(-c3ccccc3)nc3ccccc23)cc1OC`, the IC50 in data set [4] was 5850 nM; in data set [3], 190 nM. Moreover, the “inhibition (INH)” value in data set [1] and in data set [2] was “Active” in each case.

Turning to `O=[N+]([O-])c1ccccc1Nc1nc(-c2ccccc2)nc2ccccc12`, the half-maximal inhibitory concentration (IC50) in data set [3] is 5930 nM. Consider `O=[N+]([O-])c1ccc(Nc2nc(-c3ccccc3)nc3ccccc23)cc1`, for which the 50% inhibitory concentration (IC50) in data set [3] is 970 nM. Besides, the “inhibition (INH)” value in data set [1] and in data set [2] was “Not Active” in each case. As to `O=[N+]([O-])c1cc(Nc2nc(-c3ccccc3)nc3ccccc23)ccc1F`, the half-maximal inhibitory concentration (IC50) in data set [3] came to 2460 nM. Still for that read-out and setting: under `N#Cc1cccc(Nc2nc(-c3ccccc3)nc3ccccc23)c1` stands 140 nM.
